# According to patent US20260295053A1, “COMPOUNDS FOR DEGRADATION AND INHIBITION OF KRAS (G12D) PROTEIN” (Shenzhen Ionova Life Science Co., Ltd., priority 2023, published 2026):
# Molecular target: T1, KRAS (G12D) (Homo sapiens, UniProt P01116, G12D)
# T1 construct: in-cell western with KRAS G12D antibody after 24 h
# Experiment: KRAS (G12D) cellular degradation assay in AsPC-1 cells
# Assay type: cell-based
# Details: 24 hours, antibody fluorescence (Odyssey CLX), DC50 half-maximal degradation concentration
# Summary of the method: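 Read-outs were KRAS G12D immunofluorescence against β-actin after 24 h (DC50) and CellTiter Glo luminescence after 6 days (IC50). Compounds were titrated 1:3 from […] to 1.5 nM final on AsPC-1 cells at 37 °C, 5% CO2.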
# T1 sequence (P01116 1-188 isoform P01116-2 G12D): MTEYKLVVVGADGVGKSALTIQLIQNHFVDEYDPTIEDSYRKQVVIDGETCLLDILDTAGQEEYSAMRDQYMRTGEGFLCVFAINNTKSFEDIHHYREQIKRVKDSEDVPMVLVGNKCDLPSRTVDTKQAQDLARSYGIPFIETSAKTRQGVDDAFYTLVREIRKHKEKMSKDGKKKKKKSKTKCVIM
structure (smiles),measurement,value
"CCn1nccc1-c1ccc([C@@H](NC(=O)[C@@H]2C[C@@H](O)CN2C(=O)[C@H](C(C)C)n2cc(-c3ccc(COc4c(-c5c(C)c(F)cc6[nH]ncc56)c(C5CC5)cc5c(N(C)[C@H]6CCNC6)nc(OC[C@H]6CCCO6)nc45)cc3)nn2)[C@H](C)O)c2c1CC2 [Example 209, (2S,4R)-1-((2S)-2-(4-(4-(((6-cyclopropyl-7-(6-fluoro-5-methyl-1H-indazol-4-yl)-4-(methyl((S)-pyrrolidin-3-yl)amino)-2-(((R)-tetrahydrofuran-2-yl)methoxy)quinazolin-8-yl)oxy)methyl)phenyl)-1H-1,2,3-triazol-1-yl)-3-methylbutanoyl)-N-((1R,2S)-1-(5-(1-ethyl-1H-pyrazol-5-yl)bicyclo[4.2.0]octa-1(6),2,4-trien-2-yl)-2-hydroxypropyl)-4-hydroxypyrrolidine-2-carboxamide]",DC50,< 10 nM
"CCn1nccc1-c1ccc([C@@H](NC(=O)[C@@H]2C[C@@H](O)CN2C(=O)[C@H](C(C)C)n2cc(-c3ccc(COc4c(-c5c(C)c(F)cc6[nH]ncc56)c(C5CC5)cc5c(N(C)[C@H]6CCNC6)nc(OC[C@@H]6CCCO6)nc45)cc3)nn2)[C@H](C)O)c2c1CC2 [Example 210, (2S,4R)-1-((2S)-2-(4-(4-(((6-cyclopropyl-7-(6-fluoro-5-methyl-1H-indazol-4-yl)-4-(methyl((S)-pyrrolidin-3-yl)amino)-2-(((S)-tetrahydrofuran-2-yl)methoxy)quinazolin-8-yl)oxy)methyl)phenyl)-1H-1,2,3-triazol-1-yl)-3-methylbutanoyl)-N-((1R,2S)-1-(5-(1-ethyl-1H-pyrazol-5-yl)bicyclo[4.2.0]octa-1(6),2,4-trien-2-yl)-2-hydroxypropyl)-4-hydroxypyrrolidine-2-carboxamide]",DC50,< 10 nM
"CCn1nccc1-c1ccc([C@@H](NC(=O)[C@@H]2C[C@@H](O)CN2C(=O)[C@H](C(C)C)n2cc(-c3ccc(COc4c(-c5c(C)c(F)cc6[nH]ncc56)c(C5CC5)cc5c(N(C)[C@@H]6CCNC6)nc(O[C@H]6C[C@H](OC)C6)nc45)cc3)nn2)[C@H](C)O)c2c1CC2 [Example 211, (2S,4R)-1-((2S)-2-(4-(4-(((6-cyclopropyl-7-(6-fluoro-5-methyl-1H-indazol-4-yl)-2-((1r,3R)-3-methoxycyclobutoxy)-4-(methyl((R)-pyrrolidin-3-yl)amino)quinazolin-8-yl)oxy)methyl)phenyl)-1H-1,2,3-triazol-1-yl)-3-methylbutanoyl)-N-((1R,2S)-1-(5-(1-ethyl-1H-pyrazol-5-yl)bicyclo[4.2.0]octa-1(6),2,4-trien-2-yl)-2-hydroxypropyl)-4-hydroxypyrrolidine-2-carboxamide]",DC50,< 10 nM
CO[C@@H]1CC[C@@H](Oc2nc(N3C[C@@H]4C[C@H]3CN4)c3cc(C4CC4)c(-c4c(C)c(F)cc5[nH]ncc45)c(OCc4ccc(-c5cn([C@H](C(=O)N6C[C@H](O)C[C@H]6C(=O)N[C@H](c6ccc(-c7scnc7C)cc6)[C@H](C)O)C(C)C)nn5)cc4)c3n2)C1 [Example 212],DC50,< 10 nM
"Cc1ncsc1-c1ccc([C@H](CO)NC(=O)[C@@H]2C[C@@H](O)CN2C(=O)[C@H](C(C)C)n2cc(-c3ccc(COc4c(-c5c(C)c(F)cc6[nH]ncc56)c(C5CC5)cc5c(N6CCCNCC6)nc(OC[C@H]6CCCO6)nc45)cc3)nn2)cc1 [Example 213, (2S,4R)-1-((2S)-2-(4-(4-(((6-cyclopropyl-4-(1,4-diazepan-1-yl)-7-(6-fluoro-5-methyl-1H-indazol-4-yl)-2-(((R)-tetrahydrofuran-2-yl)methoxy)quinazolin-8-yl)oxy)methyl)phenyl)-1H-1,2,3-triazol-1-yl)-3-methylbutanoyl)-4-hydroxy-N—((R)-2-hydroxy-1-(4-(4-methylthiazol-5-yl)phenyl)ethyl)pyrrolidine-2-carboxamide]",DC50,< 10 nM
"CCn1nccc1-c1ccc([C@H](CO)NC(=O)[C@@H]2C[C@@H](O)CN2C(=O)[C@H](C(C)C)n2cc(-c3ccc(COc4c(-c5c(C)c(F)cc6[nH]ncc56)c(C5CC5)cc5c(N6CCCNCC6)nc(OC[C@H]6CCCO6)nc45)cc3)nn2)cc1 [Example 214, (2S,4R)-1-((2S)-2-(4-(4-(((6-cyclopropyl-4-(1,4-diazepan-1-yl)-7-(6-fluoro-5-methyl-1H-indazol-4-yl)-2-(((R)-tetrahydrofuran-2-yl)methoxy)quinazolin-8-yl)oxy)methyl)phenyl)-1H-1,2,3-triazol-1-yl)-3-methylbutanoyl)-N—((R)-1-(4-(1-ethyl-1H-pyrazol-5-yl)phenyl)-2-hydroxyethyl)-4-hydroxypyrrolidine-2-carboxamide]",DC50,< 10 nM
"CO[C@H]1CC[C@H](Oc2nc(N3C[C@@H]4C[C@H]3CN4)c3cc(C4CC4)c(-c4c(C)c(F)cc5[nH]ncc45)c(OCc4ccc(-c5cn([C@H](C(=O)N6C[C@H](O)C[C@H]6C(=O)N[C@H](c6ccc(-c7scnc7C)cc6)[C@H](C)O)C(C)C)nn5)cc4)c3n2)C1 [Example 215, (2S,4R)-1-((2S)-2-(4-(4-(((4-((1S,4S)-2,5-diazabicyclo[2.2.1]heptan-2-yl)-6-cyclopropyl-7-(6-fluoro-5-methyl-1H-indazol-4-yl)-2-(((1S,3S)-3-methoxycyclopentyl)oxy)quinazolin-8-yl)oxy)methyl)phenyl)-1H-1,2,3-triazol-1-yl)-3-methylbutanoyl)-4-hydroxy-N-((1R,2S)-2-hydroxy-1-(4-(4-methylthiazol-5-yl)phenyl)propyl)pyrrolidine-2-carboxamide]",DC50,< 10 nM
"CCn1nccc1-c1ccc([C@H](CO)NC(=O)[C@@H]2C[C@@H](O)CN2C(=O)[C@H](C(C)C)n2cc(-c3ccc(COc4c(-c5c(C)c(F)cc6[nH]ncc56)c(C5CC5)cc5c(N(C)C[C@@H]6CCNC6)nc(OC[C@H](C)OC)nc45)cc3)nn2)cc1 [Example 216, (2S,4R)-1-((2S)-2-(4-(4-(((6-cyclopropyl-7-(6-fluoro-5-methyl-1H-indazol-4-yl)-2-((S)-2-methoxypropoxy)-4-(methyl(((R)-pyrrolidin-3-yl)methyl)amino)quinazolin-8-yl)oxy)methyl)phenyl)-1H-1,2,3-triazol-1-yl)-3-methylbutanoyl)-N—((R)-1-(4-(1-ethyl-1H-pyrazol-5-yl)phenyl)-2-hydroxyethyl)-4-hydroxypyrrolidine-2-carboxamide]",DC50,< 10 nM
"CCn1nccc1-c1ccc([C@H](CO)NC(=O)[C@@H]2C[C@@H](O)CN2C(=O)[C@H](C(C)C)n2cc(-c3ccc(COc4c(-c5c(C)c(F)cc6[nH]ncc56)c(C5CC5)cc5c(N6CCC(O)CC6)nc(OC[C@H](C)OC)nc45)cc3)nn2)cc1 [Example 217, (2S,4R)-1-((2S)-2-(4-(4-(((6-cyclopropyl-7-(6-fluoro-5-methyl-1H-indazol-4-yl)-4-(4-hydroxypiperidin-1-yl)-2-((S)-2-methoxypropoxy)quinazolin-8-yl)oxy)methyl)phenyl)-1H-1,2,3-triazol-1-yl)-3-methylbutanoyl)-N—((R)-1-(4-(1-ethyl-1H-pyrazol-5-yl)phenyl)-2-hydroxyethyl)-4-hydroxypyrrolidine-2-carboxamide]",DC50,< 10 nM
"CCn1nccc1-c1ccc([C@H](CO)NC(=O)[C@@H]2C[C@@H](O)CN2C(=O)[C@H](C(C)C)n2cc(-c3ccc(COc4c(-c5c(C)c(F)cc6[nH]ncc56)c(C5CC5)cc5c(N(C)C[C@H]6CCCN6)nc(OC[C@H](C)OC)nc45)cc3)nn2)cc1 [Example 218, (2S,4R)-1-((2S)-2-(4-(4-(((6-cyclopropyl-7-(6-fluoro-5-methyl-1H-indazol-4-yl)-2-((S)-2-methoxypropoxy)-4-(methyl(((R)-pyrrolidin-2-yl)methyl)amino)quinazolin-8-yl)oxy)methyl)phenyl)-1H-1,2,3-triazol-1-yl)-3-methylbutanoyl)-N—((R)-1-(4-(1-ethyl-1H-pyrazol-5-yl)phenyl)-2-hydroxyethyl)-4-hydroxypyrrolidine-2-carboxamide]",DC50,> 1000 nM
"CO[C@@H](C)COc1nc(N2CCCNCC2)c2cc(C3CC3)c(-c3c(C)c(F)cc4[nH]ncc34)c(OCc3ccc(-c4cn([C@H](C(=O)N5C[C@H](O)C[C@H]5C(=O)N[C@@H](CO)c5ccc(-c6scnc6C)c6c5CC6)C(C)C)nn4)cc3)c2n1 [Example 219, (2S,4R)-1-((2S)-2-(4-(4-(((6-cyclopropyl-4-(1,4-diazepan-1-yl)-7-(6-fluoro-5-methyl-1H-indazol-4-yl)-2-((S)-2-methoxypropoxy)quinazolin-8-yl)oxy)methyl)phenyl)-1H-1,2,3-triazol-1-yl)-3-methylbutanoyl)-4-hydroxy-N—((R)-2-hydroxy-1-(5-(4-methylthiazol-5-yl)bicyclo[4.2.0]octa-1(6),2,4-trien-2-yl)ethyl)pyrrolidine-2-carboxamide]",DC50,< 10 nM
"CCn1nccc1-c1ccc([C@@H](NC(=O)[C@@H]2C[C@@H](O)CN2C(=O)[C@H](C(C)C)n2cc(-c3ccc(COc4c(-c5c(C)c(F)cc6[nH]ncc56)c(C5CC5)cc5c(N(C)[C@@H]6CCNC6)nc(O[C@H]6C[C@H](OC)C6)nc45)cc3)nn2)[C@H](C)O)cc1F [Example 220, (2S,4R)-1-((2S)-2-(4-(4-(((6-cyclopropyl-7-(6-fluoro-5-methyl-1H-indazol-4-yl)-2-((1r,3R)-3-methoxycyclobutoxy)-4-(methyl((R)-pyrrolidin-3-yl)amino)quinazolin-8-yl)oxy)methyl)phenyl)-1H-1,2,3-triazol-1-yl)-3-methylbutanoyl)-N-((1R,2S)-1-(4-(1-ethyl-1H-pyrazol-5-yl)-3-fluorophenyl)-2-hydroxypropyl)-4-hydroxypyrrolidine-2-carboxamide]",DC50,< 10 nM
